Test results reported in patent publication US6737383B1, “Herbicidal oxadiazolidines” (priority 1999, dated 2004).

What was measured:
[1] = system: blackgrass; experiment: Test B pre/postemergence blackgrass; format: in vivo, Alopecurus myosuroides
In short: (§1)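 Test chemicals in a non-phytotoxic solvent mixture with surfactant were sprayed preemergence onto planted seeds and postemergence onto plants 2 to 18 cm tall (1- to 4-leaf stage). After twelve to sixteen days in a greenhouse, injury was visually rated against untreated controls from 0 (no effect) to 10 (complete control).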

[2] = system: rape; experiment: Test B pre/postemergence rape; format: in vivo, Brassica napus; conditions: for Rape plant response rating: scale of 0 to 10 where 0 is no effect and 10 is complete control
In short: as §1

[3] = system: morningglory; experiment: Test B pre/postemergence morningglory; format: in vivo, Ipomoea hederacea; conditions: for Morningglory plant response rating: scale of 0 to 10 where 0 is no effect and 10 is complete control
In short: as §1

[4] = system: corn; experiment: Test B pre/postemergence corn; format: in vivo, Zea mays; conditions: for Corn plant response rating: scale of 0 to 10 where 0 is no effect and 10 is complete control
In short: as §1

[5] = system: rice; experiment: Test B flood test rice; format: in vivo, Oryza sativa
In short: (§2)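 Read-out is a visual response score from 0 (no effect) to 10 (complete control), assigned by comparison with untreated controls. Treatment was applied at the 2-leaf stage, and plants stayed in the greenhouse for twelve to sixteen days before scoring.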

[6] = system: sugar beet; experiment: Test B pre/postemergence sugar beet; format: in vivo, Beta vulgaris; conditions: for Sugarbeets plant response rating: scale of 0 to 10 where 0 is no effect and 10 is complete control
In short: as §1

[7] = system: velvetleaf; experiment: Test B pre/postemergence velvetleaf; format: in vivo, Abutilon theophrasti; conditions: for Velvetleaf plant response rating: scale of 0 to 10 where 0 is no effect and 10 is complete control
In short: as §1

[8] = system: cocklebur; experiment: Test B pre/postemergence cocklebur; format: in vivo, Xanthium strumarium; conditions: for Cocklebur plant response rating: scale of 0 to 10 where 0 is no effect and 10 is complete control
In short: as §1

[9] = system: surinam grass; experiment: Test B pre/postemergence surinam grass; format: in vivo, Brachiaria decumbens
In short: as §1

[10] = system: bedstraw; experiment: Test B pre/postemergence bedstraw; format: in vivo, Galium aparine
In short: as §1

[11] = system: giant foxtail; experiment: Test B pre/postemergence giant foxtail; format: in vivo, Setaria faberii; conditions: for Giant foxtail plant response rating: scale of 0 to 10 where 0 is no effect and 10 is complete control
In short: as §1

[12] = system: soybean; experiment: Test B pre/postemergence soybean; format: in vivo, Glycine max; conditions: for Soybean plant response rating: scale of 0 to 10 where 0 is no effect and 10 is complete control
In short: as §1

[13] = system: wheat; experiment: Test B pre/postemergence wheat; format: in vivo, Triticum aestivum; conditions: for Wheat plant response rating: scale of 0 to 10 where 0 is no effect and 10 is complete control
In short: as §1

[14] = system: wild oat; experiment: Test B pre/postemergence wild oat; format: in vivo, Avena fatua; conditions: for Wild oats plant response rating: scale of 0 to 10 where 0 is no effect and 10 is complete control
In short: as §1

[15] = system: duck salad; experiment: Test B flood test duck salad; format: in vivo, Heteranthera limosa
In short: as §2

[16] = system: pigweed; experiment: Test B pre/postemergence pigweed; format: in vivo, Amaranthus retroflexus; conditions: for Redroot pigweed plant response rating: scale of 0 to 10 where 0 is no effect and 10 is complete control
In short: as §1

[17] = system: purple nutsedge; experiment: Test B pre/postemergence purple nutsedge; format: in vivo, Cyperus rotundus; conditions: for Nutsedge plant response rating: scale of 0 to 10 where 0 is no effect and 10 is complete control
In short: as §1

[18] = system: smallflower flatsedge; experiment: Test B flood test smallflower flatsedge; format: in vivo, Cyperus difformis
In short: as §2

[19] = system: bamyardgrass; experiment: Test B flood test barnyardgrass; format: in vivo, Echinochloa crus-galli
In short: as §2

[20] = system: crabgrass; experiment: Test B pre/postemergence crabgrass; format: in vivo, Digitaria sanguinalis; conditions: for Crabgrass plant response rating: scale of 0 to 10 where 0 is no effect and 10 is complete control
In short: as §1

[21] = Postemergence, Rate 125 g/ha, scale 0 to 10, 0 is no effect, 10 is complete control
[22] = Preemergence, Rate 62 g/ha, scale 0 to 10 (0 no effect, 10 complete control)
[23] = Preemergence, Rate 250 g/ha, scale of 0 to 10 where 0 is no effect and 10 is complete control
[24] = Preemergence, Rate 500 g/ha, scale of 0 to 10 where 0 is no effect and 10 is complete control
[25] = Rate 62 g/ha, Postemergence, scale of 0 to 10 where 0 is no effect and 10 is complete control
[26] = Rate 250 g/ha, Postemergence, scale of 0 to 10 where 0 is no effect and 10 is complete control
[27] = Rate 500 g/ha, Postemergence, scale 0 to 10, 0 no effect, 10 complete control
[28] = Postemergence (flood test), Rate 125 g/ha, scale 0 to 10, 0 is no effect, 10 is complete control
[29] = Rate 62 g/ha, Postemergence (flood test species), scale of 0 to 10 where 0 is no effect and 10 is complete control
[30] = Rate 500 g/ha, listed under Postemergence (flood test species), scale 0 to 10, 0 no effect, 10 complete control

Cc1c(-n2c(=O)on(C(=O)N(c3ccccc3)C(C)C)c2=O)ccc2ccccc12 [Compound 344]
1: Crabgrass plant response rating ([20]; Preemergence, Rate 500 g/ha)
2: Giant foxtail plant response rating (0 to 10 scale) ([11]; Preemergence, Rate 125 g/ha) | Plant response rating, Soybean [12, 21] | Soybean plant response rating ([12]; Rate 62 g/ha, Postemergence) | Plant response rating, Soybean [12, 27] | Plant response rating, Redroot pigweed [16, 27]
0: Plant response rating, Blackgrass [1, 21] | Plant response rating, Blackgrass [1, 22] | Blackgrass plant response rating (0 to 10 scale) ([1]; Preemergence, Rate 125 g/ha) | Blackgrass plant response rating [1, 23] | Blackgrass plant response rating [1, 24] | Blackgrass plant response rating [1, 25] | Plant response rating, Blackgrass [1, 26] | Plant response rating, Blackgrass [1, 27] | Plant response rating, Rape [2, 21] | Plant response rating, Rape [2, 22] | Rape plant response rating (0 to 10 scale) ([2]; Preemergence, Rate 125 g/ha) | Rape plant response rating ([2]; Preemergence, Rate 250 g/ha) | Rape plant response rating ([2]; Rate 62 g/ha, Postemergence) | Plant response rating, Rape [2, 27] | Plant response rating, Morningglory [3, 21] | Plant response rating, Morningglory [3, 22] | Morningglory plant response rating (0 to 10 scale) ([3]; Preemergence, Rate 125 g/ha) | Morningglory plant response rating ([3]; Preemergence, Rate 250 g/ha) | Morningglory plant response rating ([3]; Preemergence, Rate 500 g/ha) | Morningglory plant response rating ([3]; Rate 62 g/ha, Postemergence) | Plant response rating, Morningglory [3, 27] | Plant response rating, Corn [4, 21] | Plant response rating, Corn [4, 22] | Corn plant response rating (0 to 10 scale) ([4]; Preemergence, Rate 125 g/ha) | Corn plant response rating ([4]; Preemergence, Rate 250 g/ha) | Corn plant response rating ([4]; Preemergence, Rate 500 g/ha) | Corn plant response rating ([4]; Rate 62 g/ha, Postemergence) | Plant response rating, Corn [4, 27] | Plant response rating, Rice [5, 28] | Rice plant response rating [5, 29] | Plant response rating, Rice [5, 30] | Plant response rating, Sugarbeets [6, 21] | Plant response rating, Sugarbeets [6, 22] | Sugarbeets plant response rating (0 to 10 scale) ([6]; Preemergence, Rate 125 g/ha) | Sugarbeets plant response rating ([6]; Preemergence, Rate 250 g/ha) | Sugarbeets plant response rating ([6]; Preemergence, Rate 500 g/ha) | Sugarbeets plant response rating ([6]; Rate 62 g/ha, Postemergence) | Plant response rating, Sugarbeets [6, 27] | Plant response rating, Velvetleaf [7, 21] | Plant response rating, Velvetleaf [7, 22] | Velvetleaf plant response rating (0 to 10 scale) ([7]; Preemergence, Rate 125 g/ha) | Velvetleaf plant response rating ([7]; Preemergence, Rate 250 g/ha) | Velvetleaf plant response rating ([7]; Preemergence, Rate 500 g/ha) | Velvetleaf plant response rating ([7]; Rate 62 g/ha, Postemergence) | Plant response rating, Velvetleaf [7, 27] | Plant response rating, Cocklebur [8, 21] | Plant response rating, Cocklebur [8, 22] | Cocklebur plant response rating (0 to 10 scale) ([8]; Preemergence, Rate 125 g/ha) | Cocklebur plant response rating ([8]; Preemergence, Rate 250 g/ha) | Cocklebur plant response rating ([8]; Preemergence, Rate 500 g/ha) | Cocklebur plant response rating ([8]; Rate 62 g/ha, Postemergence) | Plant response rating, Cocklebur [8, 27] | Plant response rating, B. signalgrass [9, 21] | Plant response rating, B. signalgrass [9, 22] | B. signalgrass plant response rating (0 to 10 scale, 0 is no effect, 10 is complete control) ([9]; Preemergence, Rate 125 g/ha) | B. signalgrass plant response rating [9, 23] | B. signalgrass plant response rating [9, 24] | B. signalgrass plant response rating [9, 25] | Plant response rating, B. signalgrass [9, 26] | Plant response rating, B. signalgrass [9, 27] | Plant response rating, Bedstraw [10, 21] | Plant response rating, Bedstraw [10, 22] | Bedstraw plant response rating (0 to 10 scale) ([10]; Preemergence, Rate 125 g/ha) | Bedstraw plant response rating [10, 25] | Plant response rating, Bedstraw [10, 26] | Plant response rating, Bedstraw [10, 27] | Plant response rating, Giant foxtail [11, 21] | Plant response rating, Giant foxtail [11, 22] | Giant foxtail plant response rating ([11]; Rate 62 g/ha, Postemergence) | Plant response rating, Giant foxtail [11, 27] | Plant response rating, Soybean [12, 22] | Soybean plant response rating (0 to 10 scale) ([12]; Preemergence, Rate 125 g/ha) | Soybean plant response rating ([12]; Preemergence, Rate 250 g/ha) | Soybean plant response rating ([12]; Preemergence, Rate 500 g/ha) | Plant response rating, Wheat [13, 21] | Plant response rating, Wheat [13, 22] | Wheat plant response rating (0 to 10 scale) ([13]; Preemergence, Rate 125 g/ha) | Wheat plant response rating ([13]; Preemergence, Rate 250 g/ha) | Wheat plant response rating ([13]; Preemergence, Rate 500 g/ha) | Wheat plant response rating ([13]; Rate 62 g/ha, Postemergence) | Plant response rating, Wheat [13, 27] | Plant response rating, Wild oats [14, 21] | Plant response rating, Wild oats [14, 22] | Wild oats plant response rating (0 to 10 scale) ([14]; Preemergence, Rate 125 g/ha) | Wild oats plant response rating ([14]; Preemergence, Rate 250 g/ha) | Wild oats plant response rating ([14]; Preemergence, Rate 500 g/ha) | Wild oats plant response rating ([14]; Rate 62 g/ha, Postemergence) | Plant response rating, Wild oats [14, 27] | Plant response rating, Ducksalad [15, 28] | Ducksalad plant response rating [15, 29] | Plant response rating, Ducksalad [15, 30] | Plant response rating, Redroot pigweed [16, 21] | Plant response rating, Redroot pigweed [16, 22] | Redroot pigweed plant response rating (0 to 10 scale) ([16]; Preemergence, Rate 125 g/ha) | Redroot pigweed plant response rating ([16]; Preemergence, Rate 250 g/ha) | Redroot pigweed plant response rating ([16]; Preemergence, Rate 500 g/ha) | Redroot pigweed plant response rating ([16]; Rate 62 g/ha, Postemergence) | Plant response rating, Nutsedge [17, 21] | Plant response rating, Nutsedge [17, 22] | Nutsedge plant response rating (0 to 10 scale) ([17]; Preemergence, Rate 125 g/ha) | Nutsedge plant response rating ([17]; Preemergence, Rate 250 g/ha) | Nutsedge plant response rating ([17]; Preemergence, Rate 500 g/ha) | Nutsedge plant response rating ([17]; Rate 62 g/ha, Postemergence) | Plant response rating, Nutsedge [17, 27] | Plant response rating, S. Flatsedge [18, 28] | S. Flatsedge plant response rating [18, 29] | Plant response rating, S. Flatsedge [18, 30] | Plant response rating, Barnyardgrass [19, 28] | Barnyardgrass plant response rating [19, 29] | Plant response rating, Barnyardgrass ([19]; Rate 250 g/ha, Postemergence (flood test species), scale of 0 to 10 where 0 is no effect and 10 is complete control) | Plant response rating, Barnyardgrass [19, 30] | Plant response rating, Crabgrass [20, 21] | Plant response rating, Crabgrass [20, 22] | Crabgrass plant response rating (0 to 10 scale) ([20]; Preemergence, Rate 125 g/ha) | Crabgrass plant response rating ([20]; Preemergence, Rate 250 g/ha) | Crabgrass plant response rating ([20]; Rate 62 g/ha, Postemergence) | Plant response rating, Crabgrass [20, 27]
8: Giant foxtail plant response rating ([11]; Preemergence, Rate 500 g/ha)
3: Giant foxtail plant response rating ([11]; Preemergence, Rate 250 g/ha)
